Experimental data taken from paper PMC11156899, “High-throughput screening unveils nitazoxanide as a potent PRRSV inhibitor by targeting NMRAL1” (Nature Communications, 2024).
Where “and” joins values, the source holds several entries; their conditions need not be identical. Equal entries are not always repeated. Where two headings read alike, the source gives them in different places.

Legend:
PRRSV (GSWW-18 strain) = experiment: Anti-PRRSV dose-response (EC50, IFA) in PAM cells; type: cell-based, Porcine Reproductive and Respiratory Syndrome Virus; details: Porcine reproductive and respiratory syndrome virus
[1] = test system: Porcine alveolar macrophages (PAM); experiment: Cytotoxicity assay (CC50) in PAM cells
Method: (§1) A concentration-gradient screening strategy was employed for 141 compounds using indirect immunofluorescence assay (IFA). […] Data are mean ± SEM.
(§2) Cells were seeded in 96-well plates and grown in DMEM supplemented with 10% FBS. Upon reaching confluence, compounds were diluted to varying concentrations in 2% FBS-containing medium. Control wells contained DMEM with 0.5% DMSO. Treated cells were incubated at 37 °C in a 5% CO2 humidified environment for 48 or 72 h, followed by cytotoxicity assessment as outlined in our previous work[21]. […]

[2] = test system: PRRSV GSWW-18 strain in Marc-145 cells; details: reason for exclusion before third round
Method: Subsequently, a second-round screening of the selected 141 compounds was conducted on Marc-145 cells using immunofluorescence assay (IFA) at four different dosage levels (Fig. 2a; Supplementary Fig. 2).
as §1
(1 picture or pasted object on this page, not shown here)

[3] = Cytotoxicity assay (CC50) in PAM cells; details: pig, porcine alveolar macrophages (PAM cells)
Method: as §1, §2

PRRSV GSWW-18 strain = experiment: In vivo antiviral effect in swine infected with GSWW-18 strain; set-up: species or system pig
[4] = Pharmacokinetics and tissue distribution of TIZ in swine after oral NTZ; type: in vivo, pig
Method: Fig. 4 NTZ inhibition of PRRSV shedding and transmission. a Viral load in blood, and shedding in oronasal and anal swabs. Viral load or shedding in blood and oronasal swabs were quantified from 2 to 4 dpi, and in anal swabs from 2 to 5 dpi. Viral copy numbers for each pig during this period are presented. b NTZ suppression of PRRSV proliferation in blood. 48 h post infection (infected with 1 × 10^5.5 TCID50 of GSWW-18 strain), pigs were orally administered NTZ at 10 mg/kg or 5 mg/kg at 0 h and 12 h, followed by blood collection via anterior vena cava or ear marginal vein. […] Parameters were calculated using a non-compartmental analysis (NCA). Eighteen pigs were evenly divided into three dosage groups (n = 6), each housed separately, fasted for 12 h before the experiment, and monitored by professional veterinarians for welfare and enclosure cleaning to prevent coprophagia. g Tissue distribution of NTZ’s main metabolite TIZ. Tissues were collected as per Method Pharmacokinetics and Tissue Distribution of NTZ, quantifying TIZ content at various times (n = 2). […] Symbols represent three or six independent biological replicates (a, b, f) Scatter plots (a, f) show mean ± SD values of samples, with P-values as indicated, calculated via two-way ANOVA with Dunnett’s multiple-comparison test (a), P-values < 0.0332 were considered significant. […]

NMRAL1 = NMRAL1 (Chlorocebus sabaeus, UniProt A0A0D9R9W0); experiment: Surface plasmon resonance, immobilized NMRAL1; type: binding; details: SPR
Chain of NMRAL1 (A0A0D9R9W0 entry or part of it): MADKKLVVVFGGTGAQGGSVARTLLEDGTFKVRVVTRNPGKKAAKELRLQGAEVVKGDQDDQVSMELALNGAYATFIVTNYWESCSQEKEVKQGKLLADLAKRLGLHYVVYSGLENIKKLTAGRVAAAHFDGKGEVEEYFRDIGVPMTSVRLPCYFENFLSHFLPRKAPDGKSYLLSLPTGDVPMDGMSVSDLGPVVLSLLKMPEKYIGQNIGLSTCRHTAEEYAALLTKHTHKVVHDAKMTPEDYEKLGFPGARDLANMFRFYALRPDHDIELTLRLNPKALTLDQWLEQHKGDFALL
Method: For SPR, the Biacore T200 system (Cytiva) was used to assess binding affinity and kinetics. The Series S Sensor Chip CM5 (BR100530, Cytiva) immobilized 13,000 resonance units (RU) of NMRAL1 (50 μg/ml, pH 4.0, 10 μl/min, 25°C). TIZ (10 to 0.3125 μM) dissolved in a 5% DMSO running buffer (1.05 × HBS-EP+, Cytiva) was applied, with a solvent correction fluid gradient of 4.5–5.8% DMSO. Contact time was set to 120 s for binding and 300 s for dissociation. Post-experiment, data were analyzed using Biacore T200 Evaluation Software 3.0 with Affinity Fit 1:1 Binding model.

NSP12 = experiment: Surface plasmon resonance, NSP12 purified in vitro; type: binding, PRRSV GSWW-18 strain
Text: Supplementary Fig. 10: The Affinity of Nsp1α and Nsp12 with TIZ is Lower Than That of NMRAL1.
(a) The KD value of NMRAL1 obtained through the Affinity fit model.
(b) The KD value of Nsp1α determined using the Kinetics fit model.
(c) The KD value of Nsp1α obtained through the Affinity fit model.
'FT' is the flow-through after passing through the Ni column. 'Ni-200' and 'Ni-500' represent different purification conditions with varying concentrations. 'L2' is the total cell lysate after changing the expression conditions. 'S2' is the supernatant after cell lysis with changed expression conditions. The portions highlighted in red boxes indicate the target protein. […]
constant (KD) between Nsp1α and TIZ is lower than that of NMRAL1. We observe that […]
attempting different systems (Fig. R5 e-h). Although SPR confirms the interaction […]
possibly be attributed to the abnormal protein conformation of NSP12 purified by IBs.
The existing data also indicate that the early addition of NTZ produces a more pronounced antiviral effect (Extended Data Fig. 9), and the overexpression of NMRAL1 can almost negate the antiviral action of NTZ. This leads us to speculate that NMRAL1 may be one of the primary targets of NTZ's mechanism of action, while Nsp1α and NSP12 may serve as secondary targets.
Fig.R5 Validation of the binding between Nsp1α and Nsp12 with TIZ through SPR,

[5] = third round of screening, PAM cells
[6] = PAM cells, mean ± SEM, n = 2, unit only on axis title, read-out: EC50

CC(=O)c1ccc2c(c1)N(CCCN1CCN(CCO)CC1)c1ccccc1S2 [Acetophenazine]
EC50 (PRRSV (GSWW-18 strain)): 718 ± 224 nM | cytotoxicity (in words) [1, 5]: low cytotoxicity

CN(C)CCCOc1nn(Cc2ccccc2)c2ccccc12 [Benzydamine]
EC50 (PRRSV (GSWW-18 strain); [6]): 2010 ± 469 nM | cytotoxicity (in words) [1]: low cytotoxicity

CCN(CC)CCCC(C)Nc1ccnc2cc(Cl)ccc12 (stereo not shown) [Chloroquine]
EC50 (PRRSV (GSWW-18 strain); [6]): 1520 ± 475 nM | cytotoxicity (in words) [1, 5]: low cytotoxicity

C[C@H]1O[C@@H](O[C@H]2CC[C@@]3(C)[C@H](CC[C@@H]4[C@@H]3C[C@@H](O)[C@]3(C)[C@@H](C5=CC(=O)OC5)CC[C@]43O)C2)C[C@H](O)[C@@H]1O[C@H]1C[C@H](O)[C@H](O[C@H]2C[C@H](O)[C@H](O[C@@H]3O[C@H](CO)[C@@H](O)[C@H](O)[C@H]3O)[C@@H](C)O2)[C@@H](C)O1 [Deslanoside]
cytotoxicity (in words) [2]: high cytotoxicity

Nc1ccn([C@@H]2O[C@H](CO)[C@@H](O)C2(F)F)c(=O)n1 [Gemcitabine]
EC50 (PRRSV (GSWW-18 strain); [6]): 109 ± 29 nM

CCN(CCO)CCCC(C)Nc1ccnc2cc(Cl)ccc12 (stereo not shown) [Hydroxychloroquine]
EC50 (PRRSV (GSWW-18 strain); [6]): 1090 ± 187 nM | cytotoxicity (in words) [1]: low cytotoxicity

CS(=O)(=O)CCNCc1ccc(-c2ccc3ncnc(Nc4ccc(OCc5cccc(F)c5)c(Cl)c4)c3c2)o1 [Lapatinib]
EC50 (PRRSV (GSWW-18 strain); [6]): 1770 ± 535 nM | CC50 [3]: 9510 ± 243 nM

CN(Cc1cnc2nc(N)nc(N)c2n1)c1ccc(C(=O)N[C@@H](CCC(=O)O)C(=O)O)cc1 [Methotrexate]
EC50 (PRRSV (GSWW-18 strain); [6]): 307 ± 316 nM | CC50 [3]: 6830 ± 2250 nM

COc1c(C)c2c(c(O)c1C/C=C(\C)CCC(=O)O)C(=O)OC2 [Mycophenolic acid]
EC50 (PRRSV (GSWW-18 strain); [6]): 305 ± 67 nM

CN1CCC(=C2c3ccccc3CCc3sccc32)CC1 [Pizotifen]
EC50 (PRRSV (GSWW-18 strain); [6]): 541 ± 140 nM | cytotoxicity (in words) [1]: low cytotoxicity

NC(=O)c1ncn([C@@H]2O[C@H](CO)[C@@H](O)[C@H]2O)n1 [RBV, Ribavirin]
viral load and shedding, setting of efficacy (PRRSV GSWW-18 strain; blood, oronasal and anal swabs): effective only in the prophylactic setting | efficacy against PRRSV in swine (PRRSV GSWW-18 strain; positive control group): appeared to lack efficacy

CCC(CC)COC(=O)[C@H](C)N[P@](=O)(OC[C@H]1O[C@@](C#N)(c2ccc3c(N)ncnn23)[C@H](O)[C@@H]1O)Oc1ccccc1 [Remdesivir]
EC50 (PRRSV (GSWW-18 strain); [6]): 4990 ± 2370 nM | cytotoxicity (in words) [1]: low cytotoxicity

O=C(Nc1ncc([N+](=O)[O-])s1)c1ccccc1O [TIZ, Tizoxanide]
tissue distribution ([4]; pig tissues after oral NTZ, n = 2): primarily distributed in small and large intestines, MesLNs, ILNs, but not in high concentrations in lungs | Tmax ([4]; pig, in vivo, po, 25 mg/kg): 2.167 h | affinity compared between proteins (NMRAL1; NMRAL1 vs NSP1α and NSP12): higher than that of NSP1α and NSP12 | Kd (NMRAL1; legend of Fig. 6o, Supplementary Fig. 10a (Affinity fit model)): 4500 nM | Kd (NMRAL1; value printed in Fig. 6o with ka and kd): ~2870 nM and 2870 nM | kon (NMRAL1; read-out: ka): 2380 M⁻¹ s⁻¹ | koff (NMRAL1; read-out: kd): 0.00683 s⁻¹ | interaction with NSP12 (SPR) (NSP12): weak interaction

CN(C/C=C/C#CC(C)(C)C)Cc1cccc2ccccc12 [Terbinafine]
EC50 (PRRSV (GSWW-18 strain); [6]): 1220 ± 328 nM | cytotoxicity (in words) [1]: low cytotoxicity
